{"source": "paper PMC7179205", "about": "“An Improved Synthesis of Key Intermediate to the Formation of Selected Indolin-2-Ones Derivatives Incorporating Ultrasound and Deep Eutectic Solvent (DES) Blend of Techniques, for Some Biological Activities and Molecular Docking Studies” (Molecules, 2020)", "key": {"Rat Paw Edema": {"test_system": "Rat Paw Edema", "experiment": "carrageenan-induced hind paw edema method (anti-inflammatory activity)", "assay_type": "in vivo, Wistar albino rats", "conditions": "for inhibition in vivo at 10 mg/kg: Rattus norvegicus, po", "description": "The anti-inflammatory activity of the synthesized compounds (4a–n) was evaluated by the carrageenan-induced paw edema method. An oral dose of 10 mg/kg was used for compounds and compared with the standard. Anti-inflammatory activity was accessed through percentage inhibition after 2 and 4 h (Table 1).\nCompounds produced were assessed for their anti-inflammatory activity using the carrageenan-induced hind paw edema method. The anti-inflammatory activity was carried out using Wistar albino rats of either sex (150–220 g) using a Digital Plethysmometer (Model No. 7140, UGO BASILE). The edema was induced by using 1% carrageenan solution. Indomethacin was used as a standard drug. The anti-inflammatory activity of the standard drug and tested compounds was determined at a dose of 10 mg/kg body weight. The animals were divided into groups containing six animals each and the initial paw volume of each rat was noted by the NaCl displacement method. One group was kept as control, one as standard, and the rest of the groups of compounds were to be tested. To the control group, 1% CMC solution was administered p.o. To the standard group, the standard drug was administered orally. To the test group, tested compounds were administered orally. After 60 min of the 1% CMC solution/standard drug/test compound administration, 0.1 ml of 1% (w/v) carrageenan was injected in the plantar region of the hind limb (right) of all the rats in each group including the control group. The paw volume was again measured after the time interval of 2 and 4 h. Using the following formula, inflammation was calculated as percentage inhibition for the test and reference compounds\n(Final foot volume of control—final foot volume of std./test) × 100 / final foot volume of control)"}, "[1]": {"test_system": "acetic acid-induced writhing", "experiment": "acetic acid-induced writhing method (analgesic activity)", "assay_type": "in vivo, Swiss albino mice", "description": "All the tested compounds and standard drugs are evaluated at 10 mg/kg oral dose.\nThe analgesic activity of the tested compounds was carried out by acetic acid-induced writhing method as given in the literature using Swiss albino mice of either sex (25–35 g). The writh were induced in the albino mice using an intraperitoneal injection of 1% acetic acid solution. The standard drug indomethacin and test compounds were evaluated at a concentration of 10 mg/kg of the body weight. The animals were divided into groups and each group consisted of six animals. One group was kept as control, one as standard, and other as test groups. To the control group, 0.1% CMC solution was administered p.o; to the standard group, the standard drug was administered orally, and to the test group, test compounds were administered orally. After 60 min of the 0.1% CMC solution/standard drug/tested compound administration, 0.1 ml of 1% (v/v) acetic acid solution in distilled water was injected intraperitoneally in all the mice in each group including the control group. The writhing (a contraction of the abdomen, turning of trunk, and extension of hind limbs) was counted after 5 min of acetic acid administration and were counted for a period of 15 min. The percentage of analgesic activity was calculated using the following formula.\n(Mean wriths of control—mean wriths of std./test) / mean wriths of control) × 100"}, "gastric tissue": {"test_system": "gastric tissue", "experiment": "lipid peroxidation (MDA content of gastric tissue)", "assay_type": "in vivo", "description": "Gastrointestinal (GI) ulceration, bleeding, and renal problems are common complications of NSAID’S consumption, which is directly related to lipid peroxidation. […] It was measured as the nmol of MDA/100 mg of gastric tissue. We have found the Lipid peroxidation value was maximum 6.71 ± 0.18 for indomethacin, whereas 3.89 ± 0.17, 4.08 ± 0.22, 4.26 ± 0.12, and 4.81 ± 0.13 for compounds 4i, 4c, 4f, and 4n, respectively.\nThe method adopted for lipid peroxidation is the same as Ohkawaet al. and the recent work of our researchers."}, "gastric mucosal damage": {"test_system": "gastric mucosal damage", "experiment": "acute ulcerogenic activity (severity index of gastric mucosal damage)", "assay_type": "in vivo, Wistar rats", "conditions": "test compounds 30 mg/kg oral; indomethacin 10 mg/kg or 20 mg/kg; 17 h after dose; mean ± SEM", "description": "Four compounds, namely, 4c (Ar = 4-chlorophenyl), 4f (Ar = 2-chlorophenyl), 4i (Ar = 4-fluoro-3-chlorophenyl), and 4n (Ar = 2-methylphenyl) were selected for their ulcerogenic activity. This selection was based on their anti-inflammatory and analgesic activity. Compounds were evaluated at an oral dose of 30 mg/kg relative to 10 mg/kg indomethacin.\nAcute ulcerogenic activity evaluation of the synthesized compounds was carried out according to the method described using Wistar rats of either sex (180–220 g). The animals were distributed into control, group, and test group. Each group consisted of six rats. All the rats fasted for 24 h with free access to water. To the control group, 1% CMC solution was administered p.o; to the standard group, indomethacin at a concentration of 20 mg/kg was administered orally; and to the test groups, tested compounds were administered orally at a concentration of 30 mg/kg. After the dose administration animals were kept for 17 h. After this, the animals were sacrificed for the appraisal of ulcerogenic assessment. The stomach was taken out from the animal body and washed with flushing water, then with a cotton swab wetted with saline (0.9%) and pinned on wax-coated try. The glandular portion of the stomach was cleaned again with saline to closely identify the presence of a type of ulcers or hemorrhage mark using a magnifying glass. The mucosal injury of the stomach was evaluated as per the following system: 0.5 = redness; 1 = spot ulcer; 1.5 = hemorrhage streak; 2 = ulcers < 3; 3 = ulcers > 3 < 5. The value obtained as a result of the mean score of the individual treated group—mean score of control is referred to as the severity index of the gastric mucosal damage."}, "[2]": {"conditions": "relative to indomethacin = 1.00, 10 mg/kg"}}, "note": "Where “and” joins values, the source holds several entries; their conditions need not be identical. Equal entries are not always repeated. Entries after “also recorded” stand apart in the source; their conditions may differ. Where two headings read alike, the source gives them in different places.", "data": [{"compound": "O=C1C(=NNc2nc(-c3cc4ccccc4oc3=O)cs2)c2ccccc2N1CNc1ccccc1Cl", "note": "[Compound 4f, 1-[(2-chloro-phenylamino)-methyl]-3-{[4-(2-oxo-2H-chromen-3-yl)-thiazol-2-yl]-hydrazono}-1,3-dihydro-indol-2-one]", "values": [{"measurement": "inhibition in vivo at 10 mg/kg", "setting": "Rat Paw Edema; 2 h, oral dose 10 mg/kg, 2 h, mean ± SEM, read-out: % Age Inhibition of Rat Paw Edema, 2 H", "value": "48.38 ± 0.219", "unit": "%"}, {"measurement": "inhibition in vivo at 10 mg/kg", "setting": "Rat Paw Edema; 4 h, oral dose 10 mg/kg, 4 h, mean ± SEM, read-out: % Age Inhibition of Rat Paw Edema, 4 H", "value": 72.4, "unit": "%"}, {"measurement": "% Age Inhibition of Rat Paw Edema, 4 H", "setting": "Rat Paw Edema; oral dose 10 mg/kg, 4 h, mean ± SEM, 10 mg/kg", "value": "72.42 ± 0.183", "unit": "%"}, {"measurement": "anti-inflammatory activity (in words)", "setting": "Rat Paw Edema; oral dose 10 mg/kg, compared with standard indomethacin, 10 mg/kg", "value": "good anti-inflammatory activity; also recorded: significant anti-inflammatory activity"}, {"measurement": "Potency (anti-inflammatory)", "setting": "Rat Paw Edema; [2]", "value": 0.88}, {"measurement": "inhibition in vivo at 10 mg/kg", "setting": "[1]; Mus musculus, oral dose 10 mg/kg, mean ± SEM, read-out: % Analgesic Activity", "value": "69.36 ± 0.585", "unit": "%"}, {"measurement": "analgesic activity (in words)", "setting": "[1]; oral dose 10 mg/kg, compared with standard indomethacin", "value": "very good analgesic activity"}, {"measurement": "Potency (analgesic)", "setting": "[1]; [2]", "value": 0.94}, {"measurement": "Mean with ± SEM", "setting": "[1]; writhes counted for 15 min, oral dose 10 mg/kg", "value": "9.93 ± 0.386"}, {"measurement": "melting point", "value": "239 to 241", "unit": "°C"}, {"measurement": "MDA content (lipid peroxidation)", "setting": "gastric tissue; as repeated in Table 4, the values are: MDA content (lipid peroxidation)", "value": "4.26 ± 0.12", "unit": "nmol MDA/100 mg tissue"}, {"measurement": "Nanomoles of MDA Content ± SEM/ 100 mg Tissue", "setting": "gastric tissue; gastric tissue", "value": "4.26 ± 0.12 nmol of MDA/100 mg of gastric tissue and 4.08 ± 0.22 nmol of MDA/100 mg of gastric tissue"}, {"measurement": "Severity Index", "setting": "gastric mucosal damage", "value": "0.666 ± 0.105"}]}]}
